Laboratory results as given in patent US9458093B2, “Compositions for the treatment of hypertension and/or fibrosis” (Vectus Biosystems Limited, priority 2013, dated 2016).

What was measured:
SHR on 2.2% salt diet [1] = experiment: Oral study: systolic blood pressure by tail cuff plethysmography in SHR on 2.2% salt diet; format: in vivo, rat
Excerpt: (§1) Fourteen week old SHR (on a 2.2% salt diet; Glen Forrest Stockfeeders) were randomly assigned to zero time control, VB0004 treatment (10, 100, 500, 1,000 and 2,500 pmol/kg/min) in the drinking solution or control drinking solution (5% ethanol in deionised distilled water (n=5 each group). The rats assigned to zero time control group were anaesthetised and had their heart and kidneys harvested while rats assigned to control and VB0004 treatment were weighed twice weekly and had their drinking solution intake monitored to allow adjustment of the VB0004 concentration in the drinking solution to maintain a constant dose over the 4, 6 or 8 weeks study periods. Blood pressure was measured twice weekly by tail cuff plethysmography (PowerLab, ADInstruments, Castle Hill, NSW, Australia). After 4, 6 or 8 weeks rats were anaesthetised, and their heart and kidneys harvested for quantitation of fibrosis.

[2] = tested on: bovine aortic endothelial cells; experiment: xCELLigence cellular impedance (cell index), bovine aortic endothelial cells; format: cell-based; conditions: 62.5, 125 and 250 μM, FIG. 5
Description: Briefly, 50 μl of cell culture medium (DMEM low glucose supplemented with 10% fetal bovine serum at 37° C.) was added to each well of an E-Plate 96 (Roche), and the background impedance in each well was measured. 50 μl of A-10 cell suspension (10,000 cells/well) was then added to the appropriate wells of the E-Plate 96. Cell index was monitored for each well of the E-Plate 96 in RTCA SP Station within the cell culture incubator. After overnight incubation for 16-20 hours at 5% CO2 and 95% humidity, 100 μl of VB0004 solution (VB0004 was prepared in DMSO and diluted with cell culture medium to a final DMSO concentration of 0.25%) was added to the appropriate wells of the E-Plate 96 and cell index values were measured immediately following compound treatment every 20 seconds for 3 hours. Cell index value is baseline-corrected by subtracting the cell index of vehicle-treated cells and normalized by dividing by the cell index at the time point immediately before compound addition. Baseline normalized cell index as a function of time is plotted using Roche RTCA software.
The xCELLigence SP system (Roche) was also used to measure changes in cellular impedance (cell index) following the treatment of bovine aortic endothelial cells (European Collection of Cell Cultures) with test compound. […]

[3] = tested on: A10 embryonic vascular smooth muscle cells; experiment: xCELLigence cellular impedance (cell index), A10 vascular smooth muscle cells; format: cell-based; conditions: 62.5, 125 and 250 μM, FIG. 3
Description: The xCELLigence SP system (Roche) was used to measure changes in cellular impedance (cell index) following the treatment of A10 embryonic vascular smooth muscle cells (ATCC, CRL-1476) with VB0004. This in vitro assay was correlated with blood pressure data obtained in the animal model described below in Example 3, so that it can be used for faster screening of larger number of compounds. […]
Briefly, 50 μl of cell culture medium (DMEM low glucose supplemented with 10% fetal bovine serum at 37° C.) was added to each well of an E-Plate 96 (Roche), and the background impedance in each well was measured. […] Cell index was monitored for each well of the E-Plate 96 in RTCA SP Station within the cell culture incubator. After overnight incubation for 16-20 hours at 5% CO2 and 95% humidity, 100 μl of VB0004 solution (VB0004 was prepared in DMSO and diluted with cell culture medium to a final DMSO concentration of 0.25%) was added to the appropriate wells of the E-Plate 96 and cell index values were measured immediately following compound treatment every 20 seconds for 3 hours. […]

SHR on 2.2% salt diet [4] = experiment: Intravenous infusion study: systolic blood pressure by tail cuff plethysmography in SHR on 2.2% salt diet; format: in vivo, rat; conditions: intravenous 10 and 20 pmol/kg/min, 4 weeks, FIG. 6
Description: Fourteen week old SHR (on a 2.2% salt diet; Glen Forrest Stockfeeders) were randomly assigned to zero time control, VB0004 infusion (10 and 20 pmol/kg/min) or vehicle (20% DMSO in normal saline, Baxter Healthcare, Sydney NSW Australia) infusion (n=5 each group). […] Blood pressure was measured twice weekly by tail cuff plethysmography (PowerLab, ADInstruments, Castle Hill, NSW, Australia). After 4 weeks rats were again anaesthetised, their heart and kidneys harvested for quantitation of fibrosis.

SHR on 2.2% salt diet [5] = experiment: Oral study: fibrosis quantitation in heart (Masson's trichrome) of SHR on 2.2% salt diet; format: in vivo, rat
Excerpt: as §1, with “fibrosis. To quantitate fibrosis, tissue slices ≦3 mm thick were fixed in 10% buffered formalin for 24 hours, processed and embedded in paraffin. […] A minimum of 20 random fields at magnification ×20 from transverse sections (5 at each of 2 levels) were digitized and the degree of fibrosis determined as a percent of field area of each digitized image using Image-Pro Plus V.5 (Media Cybernetics, Bethesda, Md., USA) then averaged to determine the level of fibrosis for tissue for each rat.” for “fibrosis.”

SHR on 2.2% salt diet [6] = experiment: Oral study: fibrosis quantitation in kidney (Masson's trichrome) of SHR on 2.2% salt diet; format: in vivo, rat
Excerpt: as §1, with “fibrosis. To quantitate fibrosis, tissue slices ≦3 mm thick were fixed in 10% buffered formalin for 24 hours, processed and embedded in paraffin. […] A minimum of 20 random fields at magnification ×20 from transverse sections (5 at each of 2 levels) were digitized and the degree of fibrosis determined as a percent of field area of each digitized image using Image-Pro Plus V.5 (Media Cybernetics, Bethesda, Md., USA) then averaged to determine the level of fibrosis for tissue for each rat.” for “fibrosis.”

Question: With `NC(=O)CCc1cc(-c2ccccc2)ccc1-c1cccc(O)c1` [VB0004, 2′-[3-Hydroxy-(1,1′:4′,1″-terphenyl)]propanamide] as the molecule, how does the “mean systolic blood pressure over time” value (SHR on 2.2% salt diet [1]; 2,500 pmol/kg/min orally, up to 8 weeks, FIG. 8) read?
Answer: continued to decrease with time

Question: And the “mean systolic blood pressure compared to controls” value (SHR on 2.2% salt diet [1]; 10, 100 and 500 pmol/kg/min orally, 4 weeks, FIG. 4)?
Answer: decreased blood pressure compared to controls

Question: What about the “mean systolic blood pressure compared with controls, dose dependence” value (SHR on 2.2% salt diet [1]; 10 to 2,500 pmol/kg/min orally, 4 weeks, FIG. 7) of the same molecule?
Answer: decreased blood pressure with increased dose compared with controls

Question: What about the “impedance response (cell index)” value [2] of the same molecule?
Answer: negative impedance response

Question: And the “impedance response (cell index)” value [3]?
Answer: negative impedance response

Question: What about the “decrease in SBP compared with vehicle control” value (SHR on 2.2% salt diet [4]) of the same molecule?
Answer: 20 mmHg

Question: And the melting point?
Answer: 167.2 to 168.9 °C

Question: And the “fibrosis in the heart” value (SHR on 2.2% salt diet [5]; 18 week old SHR, 10 to 500 pmol/kg/min orally, 4 weeks, vs 14 and 18 week controls, FIG. 9)?
Answer: decreased compared with fibrosis in 14 and 18 week controls

Question: What about the “fibrous tissue in heart sections (micrographs, Masson's trichrome)” value (SHR on 2.2% salt diet [5]; SHR, 500 pmol/kg/min for four weeks, FIG. 11) of the same molecule?
Answer: virtually no fibrous tissue is present

Question: What about the “fibrosis in the kidney” value (SHR on 2.2% salt diet [6]; 18 week old SHR, 10 to 500 pmol/kg/min orally, 4 weeks, vs 14 and 18 week controls, FIG. 10) of the same molecule?
Answer: decreased compared with fibrosis in 14 and 18 week controls

Question: What about the “fibrous tissue in kidney sections (micrographs, Masson's trichrome)” value (SHR on 2.2% salt diet [6]; SHR, 500 pmol/kg/min for four weeks, FIG. 12) of the same molecule?
Answer: virtually no fibrous tissue is present
